# Results taken from ChEMBL document CHEMBL5537195, “Novel Covalent Probe Selectively Targeting Glutathione Peroxidase 4 In Vivo: Potential Applications in Pancreatic Cancer Therapy” (J Med Chem, 2024).
# pIC50: −log10 of the molar value. The source made the active and inactive calls. The rule behind the calls is not given here.
# Columns and labels:
# [1] = molecular target: T1, Phospholipid hydroperoxide glutathione peroxidase GPX4 (Homo sapiens) (UniProt P36969); assay: Competitive binding affinity to GPX4 in human ASPC1 cells at 0.2 uM incubated for 1 hr in presence of 4-(((4-(benzo[d]thiazol-2-yl)phenyl)(methyl)amino)methyl)-N-ethynyl-N-methylbenzenesulfonamide; format: cell-based
# T1 sequence (whole entry): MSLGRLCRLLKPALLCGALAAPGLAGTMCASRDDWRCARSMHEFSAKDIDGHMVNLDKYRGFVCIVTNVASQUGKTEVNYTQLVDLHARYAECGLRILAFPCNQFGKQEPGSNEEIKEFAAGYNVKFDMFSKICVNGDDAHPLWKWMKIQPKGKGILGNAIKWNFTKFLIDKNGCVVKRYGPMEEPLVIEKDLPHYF
# [2] = tested on: ASPC1; assay: Induction of apoptosis in human ASPC1 cells at 20 to 200 nM incubated for 48 hrs by FITC based flow cytometry analysis; format: functional, cell-based; conditions: dose 20-200 nM
# [3] = Toxicity in NOD-SCID mouse xenografted with human ASPC1 cells assessed as mortality at 10 mg/kg, ip administered for once daily for 14 days; format: organism-based; conditions: in vivo, 336 h, time 14 day
# [4] = tested on: Mus musculus; assay: In vivo target engagement at GPX4 in SCID mouse at 10 mg/kg, ip qd administered for 14 days and measured after 2 hrs by SDS-PAGE analysis; format: functional, organism-based; conditions: time 14.0 day
# [5] = molecular target: T1, Phospholipid hydroperoxide glutathione peroxidase GPX4 (Homo sapiens); assay: Binding affinity to GPX4 in human Panc1005 cells at 0.2 uM incubated for 1 hr by SDS-PAGE analysis; format: cell-based
# [6] = tested on: BXPC-3; assay: Antiproliferative activity against human BXPC-3 cells assessed as inhibition of cell growth incubated for 72 hrs by CCK-8 assay; format: functional, cell-based; conditions: BXPC-3, 72 h
# [7] = tested on: ASPC1; assay: Antitumor activity against human ASPC1 cells xenografted in NOD-SCID mouse assessed as tumor growth inhibition at 10 mg/kg, ip administered for 14 days; format: functional; conditions: ASPC1, 336 h, time 14 day, read-out: TGI
# [8] = tested on: ASPC1; assay: Induction of ferroptosis in human ASPC1 cells assessed as cell death at 2 uM in presence of Z-VAD-FMK; format: functional, cell-based
# [9] = tested on: ASPC1; assay: Induction of ferroptosis in human ASPC1 cells assessed as cell death at 2 uM in presence of 3-methyladenine; format: functional, cell-based
# [10] = tested on: ASPC1; assay: Induction of ferroptosis in human ASPC1 cells assessed as reduction in cell viability incubated for 72 hrs by CCK-8 assay; format: functional, cell-based; conditions: ASPC1, 72 h
# [11] = molecular target: T1, Phospholipid hydroperoxide glutathione peroxidase GPX4 (Homo sapiens); assay: Competitive binding affinity to GPX4 (unknown origin) at 0.2 uM incubated for 5 hrs in presence of 4-(((4-(benzo[d]thiazol-2-yl)phenyl)(methyl)amino)methyl)-N-ethynyl-N-methylbenzenesulfonamide by pull-down based Western blot analysis
# [12] = molecular target: T1, Phospholipid hydroperoxide glutathione peroxidase GPX4 (Homo sapiens); assay: Binding affinity to GPX4 in human BXPC-3 cells at 0.2 uM incubated for 1 hr by SDS-PAGE analysis; format: cell-based
# [13] = tested on: ASPC1; assay: Induction of ferroptosis in human ASPC1 cells assessed as cell death at 2 uM in presence of Necrostatin-1; format: functional, cell-based
# [14] = tested on: ASPC1; assay: Induction of ferroptosis in human ASPC1 cells assessed as decrease in intracellular GSH level at 5 uM incubated for 5 hrs in absence of […]; format: functional, cell-based
# [15] = tested on: ASPC1; assay: Antitumor activity against human ASPC1 cells xenografted in NOD-SCID mouse assessed as reduction in tumor weight at 10 mg/kg, ip administered for 14 days; format: functional, organism-based; conditions: time 14.0 day
# [16] = tested on: NCI-H522; assay: Induction of ferroptosis in human NCI-H522 cells assessed as reduction in cell viability incubated for 72 hrs by CCK-8 assay; format: functional, cell-based; conditions: NCI-H522, 72 h
# [17] = tested on: ASPC1; assay: Antiproliferative activity against human AsPC1 cells assessed as inhibition of cell growth incubated for 72 hrs by CCK-8 assay; format: functional, cell-based; conditions: ASPC1, 72 h
# [18] = molecular target: T1, Phospholipid hydroperoxide glutathione peroxidase GPX4 (Homo sapiens); assay: Binding affinity to GPX4 in human ASPC1 cells incubated for 1 hr by SDS-PAGE analysis; format: cell-based; conditions: dose 0.02-0.2 µM
# [19] = tested on: ASPC1; assay: Induction of ferroptosis in human ASPC1 cells assessed as reduction in cell viability incubated for 48 hrs by CCK-8 assay; format: functional, cell-based; conditions: ASPC1, 48 h
# [20] = organism: Homo sapiens; assay: Binding affinity to GPX4 U46C mutant (unknown origin) incubated for 1 hr by pull-down based Western blot analysis; conditions: dose 0.2-5 µM
# [21] = molecular target: T1, Phospholipid hydroperoxide glutathione peroxidase GPX4 (Homo sapiens); assay: Binding affinity to GPX4 in human ASPC1 cells at 0.2 uM incubated for 1 hr in presence of N-ethynyl-N-methyl-4-((methyl(4(trifluoromethyl)phenyl)amino)methyl)benzenesulfonamide by SDS-PAGE analysis; format: cell-based
# [22] = molecular target: T1, Phospholipid hydroperoxide glutathione peroxidase GPX4 (Homo sapiens); assay: Competitive binding affinity to GPX4 in human ASPC1 cells at 0.2 uM incubated for 1 hr in presence of ML210; format: cell-based
# [23] = molecular target: T1, Phospholipid hydroperoxide glutathione peroxidase GPX4 (Homo sapiens); assay: Binding affinity to GPX4 in human HPAC cells at 0.2 uM incubated for 1 hr by SDS-PAGE analysis; format: cell-based
# [24] = tested on: CFPAC-1; assay: Antiproliferative activity against human CFPAC-1 cells assessed as inhibition of cell growth incubated for 72 hrs by CCK-8 assay; format: functional, cell-based; conditions: CFPAC-1, 72 h
# [25] = tested on: Mus musculus; assay: In vivo target engagement at GPX4 in SCID mouse at 10 mg/kg, ip qd administered for 14 days and measured after 2 hrs by pull-down based Western blot analysis; format: functional, organism-based; conditions: time 14.0 day
# [26] = tested on: ASPC1; assay: Induction of ferroptosis in human ASPC1 cells assessed as decrease in intracellular GSH level at 5 uM incubated for 5 hrs in presence of […]; format: functional, cell-based
# [27] = tested on: ASPC1; assay: Induction of ferroptosis in human ASPC1 cells assessed as cell death at 2 uM in presence of Ferrostatin-1; format: functional, cell-based
# [28] = molecular target: T1, Phospholipid hydroperoxide glutathione peroxidase GPX4 (Homo sapiens); assay: Binding affinity to GPX4 in human ASPC1 cells incubated for 1 hr by imaging analysis; format: cell-based; conditions: dose 0.2-5 µM
# [29] = tested on: PANC-1; assay: Antiproliferative activity against human PANC-1 cells assessed as inhibition of cell growth incubated for 72 hrs by CCK-8 assay; format: functional, cell-based; conditions: PANC-1, 72 h
# [30] = Half life in Sprague-Dawley rat at 2 mg/kg, iv measured upto 48 hrs by LC-MS/MS analysis; format: ADME, organism-based; conditions: in vivo
# [31] = tested on: ASPC1; assay: Induction of ferroptosis in human ASPC1 cells assessed as reduction in cell viability incubated for 24 hrs followed by compound washout by CCK-8 assay; format: functional, cell-based; conditions: ASPC1, 24 h
# [32] = molecular target: T1, Phospholipid hydroperoxide glutathione peroxidase GPX4 (Homo sapiens); assay: Binding affinity to GPX4 in human ASPC1 cells at 0.2 uM by SDS-PAGE analysis; format: cell-based; conditions: time 0.1 hrs, TDE = time-dependent effect
# [33] = tested on: HCT-116; assay: Induction of ferroptosis in human HCT-116 cells assessed as reduction in cell viability incubated for 72 hrs by CCK-8 assay; format: functional, cell-based; conditions: HCT-116, 72 h
# [34] = molecular target: T1, Phospholipid hydroperoxide glutathione peroxidase GPX4 (Homo sapiens); assay: Binding affinity to GPX4 in human ASPC1 cells at 0.2 uM incubated for 1 hr by immunofluorescence based confocal microscopic analysis; format: cell-based
# [35] = tested on: ASPC1; assay: Induction of ferroptosis in human ASPC1 cells assessed as effect on ROS level at 1 uM incubated for 3 hrs in presence of […]; format: functional, cell-based
# [36] = molecular target: T1, Phospholipid hydroperoxide glutathione peroxidase GPX4 (Homo sapiens); assay: Binding affinity to GPX4 in human ASPC1 cells at 0.2 uM incubated for 1 hr in presence of 4-(((4-(benzo[d]thiazol-2-yl)phenyl)(methyl)amino)methyl)-N-ethynyl-N-methylbenzenesulfonamide by SDS-PAGE analysis; format: cell-based
structure (smiles),measurement,setting,value
C#CCN(Cc1ccc(S(=O)(=O)N(C)C#C)cc1)c1ccc(-c2nc3ccccc3s2)cc1,Activity,[1],Active
same,Activity,[2],inactive
same,Activity,[3],Non-Toxic
same,Activity,[4],Active
same,Activity,[5],Active
same,pIC50,[6],7.70
same,inhibition in vivo at 10 mg/kg,[7],28%
same,Activity,[8],inactive
same,Activity,[9],inactive
same,pIC50,[10],7.85
same,Activity,[11],Active
same,Activity,[12],Active
same,Activity,[13],inactive
same,Activity,[14],Active
same,Activity,[15],Active
same,pIC50,[16],8.52
same,pIC50,[17],7.66
same,Activity,[18],Dose-Dependent Effect
same,pIC50,[19],7.59
same,Activity,[20],Active
same,Activity,[21],Active
same,Activity,[22],Active
same,Activity,[23],Active
same,pIC50,[24],7.70
same,Activity,[25],Active
same,Activity,[26],Active
same,Activity,[27],inactive
same,Activity,[28],Dose-Dependent Effect
same,pIC50,[29],7.70
same,half-life,[30],153 min
same,pIC50,[31],7.21
same,Activity,[32],Tde
same,pIC50,[33],< 5.00
same,Activity,[34],Active
same,Activity,[35],Active
same,Activity,[36],Active
